Experimental data published in ChEMBL document CHEMBL1154880, “Hydroxylated sclerosporin derivatives from the marine-derived fungus Cadophora malorum” (J Nat Prod, 2010).
Values after ≈ are worked out from the molar mass of the structure shown. Active and inactive are the calls of the source. No cut-off for these calls is given here.

Tests used:
Escherichia coli = experiment: Antibacterial activity against Escherichia coli at 50 ug/disk; type: functional, organism-based
Aspergillus ruber = experiment: Antifungal activity against Eurotium rubrum at 50 ug/disk; type: functional, organism-based
[Chlorella] fusca = Antialgal activity against Chlorella fusca at 50 ug/disk; type: functional, organism-based; conditions: Scenedesmus fuscus
Priestia megaterium = experiment: Antibacterial activity against Bacillus megaterium at 50 ug/disk; type: functional, organism-based
Microbotryum violaceum = experiment: Antifungal activity against Microbotryum violaceum at 50 ug/disk; type: functional, organism-based
Mycotypha microspora = experiment: Antifungal activity against Mycotypha microspora at 50 ug/disk; type: functional, organism-based
[1] = Cytotoxicity against mouse 3T3L1 cells assessed as cell viability at 25 ug/ml after 7 days relative to control; type: cell-based; conditions: 3T3-L1 cells, read-out: Activity
3T3-L1 [2] = experiment: Inhibition of adipogenesis in mouse 3T3L1 cells assessed as triglyceride accumulation at 25 ug/ml after 7 days relative to control; type: functional; set-up: scale not given: the % may be the effect or the level left
[3] = Cytotoxicity against mouse 3T3L1 cells assessed as cell viability at 100 ug/ml after 7 days relative to control; type: cell-based; conditions: 3T3-L1 cells, read-out: Activity
3T3-L1 [4] = experiment: Inhibition of adipogenesis in mouse 3T3L1 cells assessed as triglyceride accumulation at 50 ug/ml after 7 days relative to control; type: functional; set-up: scale not given: the % may be the effect or the level left
3T3-L1 [5] = experiment: Inhibition of adipogenesis in mouse 3T3L1 cells assessed as triglyceride accumulation after 7 days; type: functional, cell-based; conditions: 3T3-L1, 168 h
3T3-L1 [6] = experiment: Cytotoxicity against mouse 3T3L1 cells assessed as cell viability after 7 days; type: cell-based; conditions: 3T3-L1, 168 h
3T3-L1 [7] = experiment: Inhibition of adipogenesis in mouse 3T3L1 cells assessed as triglyceride accumulation at 100 ug/ml after 7 days relative to control; type: functional; set-up: scale not given: the % may be the effect or the level left
[8] = Cytotoxicity against mouse 3T3L1 cells assessed as cell viability at 50 ug/ml after 7 days relative to control; type: cell-based; conditions: 3T3-L1 cells, read-out: Activity
[9] = Cytotoxicity against mouse 3T3L1 cells assessed as cell viability at 20 ug/ml after 7 days relative to control; type: cell-based; conditions: 3T3-L1 cells, read-out: Activity
[10] = Cytotoxicity against mouse 3T3L1 cells assessed as cell viability at 4 ug/ml after 7 days relative to control; type: cell-based; conditions: 3T3-L1 cells, read-out: Activity
3T3-L1 [11] = experiment: Inhibition of adipogenesis in mouse 3T3L1 cells assessed as triglyceride accumulation at 20 ug/ml after 7 days relative to control; type: functional; set-up: scale not given: the % may be the effect or the level left
3T3-L1 [12] = experiment: Inhibition of adipogenesis in mouse 3T3L1 cells assessed as triglyceride accumulation at 4 ug/ml after 7 days relative to control; type: functional; set-up: scale not given: the % may be the effect or the level left
NCI-H460 = experiment: Cytotoxicity against human NCI-H460 cells at 100 uM after 48 hrs by sulforhodamine B assay; type: functional, cell-based
[13] = tested on: Human immunodeficiency virus 2; experiment: Antiviral activity against HIV2 infected in human MT4 cells assessed as inhibition of virus-induced cytopathogenic effect at 50 ug/ml after 5 days by MTT assay; type: functional, organism-based
[14] = biological target: Cyclin-dependent kinase 5 (Homo sapiens) (UniProt Q00535); experiment: Inhibition of CDK5 at […]
Influenza B virus = experiment: Antiviral activity against influenza B at 100 ug/ml; type: functional, organism-based
SARS-CoV = experiment: Antiviral activity against SARS virus infected in african green monkey Vero76 cells assessed as inhibition of virus-induced cytopathogenic effect at 100 ug/ml after 3 days by neutral red uptake assay; type: functional, organism-based; conditions: Severe acute respiratory syndrome-related coronavirus, Vero 76
Influenza A virus = experiment: Antiviral activity against influenza A H5N1 subtype at 100 ug/ml; type: functional, organism-based
MCF7 = experiment: Cytotoxicity against human MCF7 cells at 100 uM after 48 hrs by sulforhodamine B assay; type: functional, cell-based
SF-268 = experiment: Cytotoxicity against human SF268 cells at 100 uM after 48 hrs by sulforhodamine B assay; type: functional, cell-based
[15] = tested on: Human immunodeficiency virus 1; experiment: Antiviral activity against HIV1 infected in human MT4 cells assessed as inhibition of virus-induced cytopathogenic effect at 50 ug/ml after 5 days by MTT assay; type: functional, organism-based
[16] = biological target: Neutrophil elastase (Homo sapiens) (UniProt P08246); experiment: Inhibition of human neutrophil elastase at 100 uM
Plasmodium berghei = experiment: Antiplasmodial activity against Plasmodium berghei sporozoites expressing GFP infected in hepatocytes at 25 uM by flow cytometry; type: functional, organism-based; conditions: Hepatocyte
[17] = biological target: Dual specificity tyrosine-phosphorylation-regulated kinase 1A (Homo sapiens) (UniProt Q13627); experiment: Inhibition of DYRK1A at […]
Human gammaherpesvirus 4 = experiment: Antiviral activity against Epstein-Barr virus at 100 ug/ml; type: functional, organism-based

Neutrophil elastase (Homo sapiens), sequence (P08246 whole entry): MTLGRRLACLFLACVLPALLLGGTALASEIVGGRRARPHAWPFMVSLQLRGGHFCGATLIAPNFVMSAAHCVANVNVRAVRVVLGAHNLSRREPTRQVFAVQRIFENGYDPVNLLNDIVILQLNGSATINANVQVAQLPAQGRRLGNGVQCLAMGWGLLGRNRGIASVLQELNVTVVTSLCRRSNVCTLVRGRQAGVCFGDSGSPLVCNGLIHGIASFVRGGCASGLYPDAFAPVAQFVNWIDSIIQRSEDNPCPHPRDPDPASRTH
Cyclin-dependent kinase 5 (Homo sapiens), sequence (Q00535 whole entry, looked up): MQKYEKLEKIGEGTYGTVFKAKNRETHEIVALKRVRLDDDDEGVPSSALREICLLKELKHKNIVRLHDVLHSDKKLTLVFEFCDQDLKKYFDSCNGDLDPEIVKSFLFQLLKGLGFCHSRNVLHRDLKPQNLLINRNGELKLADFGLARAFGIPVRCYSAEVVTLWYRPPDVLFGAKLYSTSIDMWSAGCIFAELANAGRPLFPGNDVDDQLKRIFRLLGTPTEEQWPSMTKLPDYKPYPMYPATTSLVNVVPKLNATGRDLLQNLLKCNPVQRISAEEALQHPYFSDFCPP

Row | SMILES | Activity (Escherichia coli) | Activity (Aspergillus ruber) | Activity ([Chlorella] fusca) | Activity (Priestia megaterium) | Activity (Microbotryum violaceum) | Activity (Mycotypha microspora) | viability at 168 h, 100 ug/ml [3] [%] | IC50 (3T3-L1 [5]) [µg/mL] | IC50 (3T3-L1 [6]) [µg/mL] | Activity (3T3-L1 [7]) [%] | also measured
1 | CC1=C[C@H]2[C@@H](CC1)C(C(=O)O)=CC[C@@H]2C(C)(C)O | inactive | inactive | inactive | inactive | inactive | inactive |  |  |  |  | 
2 | CC1=C[C@@H]2[C@@H](C(C)C)CC=C(C(=O)O)[C@@H]2CC1 | inactive | inactive | inactive | inactive | inactive | inactive |  |  |  |  | 
3 | NC[C@H](O)c1ccc(O)c(O)c1 [NOREPINEPHRINE] |  |  |  |  |  |  | 69 | 69 (≈ 408 µM) | > 100 | 33 | viability at 168 h, 25 ug/ml [1]: 123%; Activity (3T3-L1 [2]): 71%; Activity (3T3-L1 [4]): 64%; viability at 168 h, 50 ug/ml [8]: 102%
4 | CC1=C[C@@H]2[C@@H](C(C)CO)CC=C(C(=O)O)[C@@H]2CC1 (some centres undefined) | inactive | inactive | inactive | inactive | inactive | inactive |  |  |  |  | 
5 | CC1=C[C@@H]2[C@@H](C(C)C)[C@H](O)C=C(C(=O)O)[C@@H]2CC1 | inactive | inactive | inactive | inactive | inactive | inactive | 46 | 53 (≈ 212 µM) | 76 (≈ 304 µM) | 26 | viability at 168 h, 20 ug/ml [9]: 79%; viability at 168 h, 4 ug/ml [10]: 82%; Activity (3T3-L1 [11]): 133%; Activity (3T3-L1 [12]): 117%
6 | CC(C)[C@H]1CC=C(C(=O)O)[C@@H]2CCC(CO)=C[C@H]12 | inactive | inactive | inactive | inactive | inactive | inactive |  |  |  |  | inhibition (NCI-H460): inactive; inhibition [13]: inactive; inhibition [14]: inactive; Activity (Influenza B virus): inactive; Activity (SARS-CoV): inactive; Activity (Influenza A virus): inactive; inhibition (MCF7): inactive; inhibition (SF-268): inactive; inhibition [15]: inactive; inhibition [16]: inactive; inhibition (Plasmodium berghei): inactive; inhibition [17]: inactive; inhibition (Human gammaherpesvirus 4): inactive
